Test results taken from US11306096B2, “4,6 dihydropyrrolo [3,4-C] pyrazole-5 (1H)-carbonitrile derivates for treating cancer” (MISSION THERAPEUTICS LIMITED, priority 2016, dated 2022).
Each block holds one molecule with its values, some of them ahead of it.

Target: USP7 (Homo sapiens (Human), UniProt Q93009)
Assay: USP7 Biochemical IC50 Assay
Conditions: FLAG-USP7; enzyme and compound incubated 30 min at room temp; TAMRA labelled peptide-ubiquitin fluorescence polarisation substrate; read after 2 hr; read-out: IC50 range
Protocol: The USP7 construct was PCR amplified and cloned into a pFLAG-CMV-6a vector (Sigma-Aldrich) with an N-terminal FLAG tag. HEK293T cells were transfected with FLAG-USP7 using TransIT-LT1 transfection reagent (Mirus) according to the manufacturer's instructions. Cells were harvested 40 hours after transfection. […] The resin was washed two times with low salt buffer plus protease inhibitors (complete mini, Roche) and phosphatase inhibitors (PhosSTOP mini, Roche) and one time with high salt buffer (20 mM Tris, pH 7.5, 500 mM NaCl, 0.5 mM EDTA, 5 mM beta-mercaptoethanol, protease inhibitors (complete mini, Roche) and phosphatase inhibitors (PhosSTOP mini, Roche). To elute the bound USP7, elution buffer (10 mM Tris, pH 7.5, 150 mM NaCl, 0.5 mM EDTA, 10% glycerol, 0.5% NP40, 5 mM beta-mercaptoethanol, 0.15 mg/ml 3×FLAG peptide (Sigma-Aldrich)) was added to the resin and incubated at 4° C. for 2.5 hours rotating. The resin was centrifuged at 4000 rpm for 30 seconds, and the supernatant containing purified FLAG-USP7 was removed and stored at −80° C.
USP7 Biochemical IC50 Assay
A typical 8-point dilution series would be 100, 30, 10, 3, 1, 0.3, 0.1, 0.03 μM final. […] Either 1 μl of 50% DMSO or diluted compound was added to the plate. USP7 was diluted in reaction buffer (20 mM Tris, pH 7.5, 100 mM NaCl, 0.05% Tween 20, 0.5 mg/ml BSA, 5 mM—beta mercaptoethanol) to the equivalent of 0.0025 μl/well and 10 μl of diluted USP7 was added to the compound. Enzyme and compound were incubated for 30 min at room temp. Reactions were initiated by the addition of 50 nM of TAMRA labelled peptide linked to ubiquitin via an iso-peptide bond as fluorescence polarisation substrate. Reactions were read immediately after addition of substrate and following a 2 hr incubation at room temperature. Readings were performed on a Pherastar Plus (BMG Labtech). λ Excitation 540 nm; λ Emission 590 nm.

Sequence of USP7 (Q93009 whole entry): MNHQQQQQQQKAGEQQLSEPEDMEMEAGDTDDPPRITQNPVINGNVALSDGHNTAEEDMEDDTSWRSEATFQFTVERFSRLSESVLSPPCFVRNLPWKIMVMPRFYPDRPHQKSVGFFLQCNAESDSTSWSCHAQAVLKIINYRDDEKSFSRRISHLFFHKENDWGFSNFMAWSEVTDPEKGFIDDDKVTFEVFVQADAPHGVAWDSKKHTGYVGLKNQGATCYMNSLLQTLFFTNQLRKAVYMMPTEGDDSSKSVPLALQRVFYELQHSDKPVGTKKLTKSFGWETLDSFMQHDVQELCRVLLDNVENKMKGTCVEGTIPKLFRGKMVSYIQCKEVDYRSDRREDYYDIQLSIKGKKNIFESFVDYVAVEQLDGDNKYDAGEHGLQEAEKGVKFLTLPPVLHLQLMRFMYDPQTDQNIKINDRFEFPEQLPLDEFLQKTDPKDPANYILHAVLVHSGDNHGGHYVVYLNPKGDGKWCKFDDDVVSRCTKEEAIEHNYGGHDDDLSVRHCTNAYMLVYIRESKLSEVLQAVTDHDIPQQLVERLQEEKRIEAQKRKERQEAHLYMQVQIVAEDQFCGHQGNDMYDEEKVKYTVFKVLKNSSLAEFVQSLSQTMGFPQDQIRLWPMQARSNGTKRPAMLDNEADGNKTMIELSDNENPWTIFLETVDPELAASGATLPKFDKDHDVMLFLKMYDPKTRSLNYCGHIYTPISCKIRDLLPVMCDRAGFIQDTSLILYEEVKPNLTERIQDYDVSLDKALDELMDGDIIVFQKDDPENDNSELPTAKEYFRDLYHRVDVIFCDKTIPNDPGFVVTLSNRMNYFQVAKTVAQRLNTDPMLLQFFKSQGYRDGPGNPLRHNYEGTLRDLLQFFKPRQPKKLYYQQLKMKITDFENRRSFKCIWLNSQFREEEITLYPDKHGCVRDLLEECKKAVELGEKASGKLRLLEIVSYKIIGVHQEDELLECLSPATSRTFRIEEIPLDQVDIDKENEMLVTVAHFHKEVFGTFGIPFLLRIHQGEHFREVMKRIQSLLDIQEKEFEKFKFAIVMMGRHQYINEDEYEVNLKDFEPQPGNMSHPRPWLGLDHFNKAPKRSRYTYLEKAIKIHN

IC50: 10 to 30 µM
SMILES: CNC(=O)c1ccc(-n2ncc3c2CN(C#N)C3)cc1 [Example 15, 4-(5-Cyano-5,6-dihydropyrrolo[3,4-c]pyrazol-1(4H)-yl)-N-methylbenzamide]

IC50: < 10 µM
SMILES: Cn1nc2c(c1-c1ccccc1)CN(C#N)C2 [Example 22, 2-Methyl-3-phenyl-2,6-dihydropyrrolo[3,4-c]pyrazole-5(4H)-carbonitrile]

IC50: < 10 µM
SMILES: CC(C)n1nc(-c2ccccc2)c2c1CN(C#N)C2 [Example 23, 1-Isopropyl-3-phenyl-4,6-dihydropyrrolo[3,4-c]pyrazole-5(1H)-carbonitrile]

IC50: < 10 µM
SMILES: Cn1ncc2cc(-n3ncc4c3CN(C#N)C4)ccc21 [Example 17, 1-(1-Methyl-1H-indazol-5-yl)-4,6-dihydropyrrolo[3,4-c]pyrazole-5(1H)-carbonitrile]

IC50: 10 to 30 µM
SMILES: N#CN1Cc2[nH]nc(-c3ccnn3Cc3ccccc3)c2C1 [Example 53, 3-(1-Benzyl-1H-pyrazol-5-yl)-4,6-dihydropyrrolo[3,4-c]pyrazole-5(1H)-carbonitrile]

IC50: 10 to 30 µM
SMILES: N#CN1Cc2cnn(-c3ccccc3)c2C1 [Example 2, 1-Phenyl-4,6-dihydropyrrolo[3,4-c]pyrazole-5(1H)-carbonitrile]

IC50: < 10 µM
SMILES: N#CN1Cc2cnn(-c3cnc4ccccc4c3)c2C1 [Example 6, 1-(Quinolin-3-yl)-4,6-dihydropyrrolo[3,4-c]pyrazole-5(1H)-carbonitrile]

IC50: 10 to 30 µM
SMILES: CC(=O)NCc1nn(-c2ccccc2)c2c1CN(C#N)C2 [Example 36, N-((5-Cyano-1-phenyl-1,4,5,6-tetrahydropyrrolo[3,4-c]pyrazol-3-yl)methyl)acetamide]

IC50: < 10 µM
SMILES: N#CN1Cc2cnn(-c3cccc(C(=O)NCc4ccccn4)c3)c2C1 [Example 13, 3-(5-Cyano-5,6-dihydropyrrolo[3,4-c]pyrazol-1(4H)-yl)-N-(pyridin-2-ylmethyl)benzamide]

IC50: 10 to 30 µM
SMILES: COc1cccc(-n2ncc3c2CN(C#N)C3)c1 [Example 7, 1-(3-Methoxyphenyl)-4,6-dihydropyrrolo[3,4-c]pyrazole-5(1H)-carbonitrile]

IC50: 10 to 30 µM
SMILES: N#CN1Cc2cnn(-c3ccccc3F)c2C1 [Example 4, 1-(2-Fluorophenyl)-4,6-dihydropyrrolo[3,4-c]pyrazole-5(1H)-carbonitrile]

IC50: < 10 µM
SMILES: Cn1nc2c(c1Nc1cc3ccccc3cn1)CN(C#N)C2 [Example 30, 3-(Isoquinolin-3-ylamino)-2-methyl-2,6-dihydropyrrolo[3,4-c]pyrazole-5(4H)-carbonitrile]

IC50: < 10 µM
SMILES: Cc1nn(-c2ccc(C(N)=O)cc2)c2c1CN(C#N)C2 [Example 16, 4-(5-Cyano-3-methyl-5,6-dihydropyrrolo[3,4-c]pyrazol-1(4H)-yl)benzamide]

IC50: 10 to 30 µM
SMILES: N#CN1Cc2cnn(-c3ccc(C(N)=O)cc3)c2C1 [Example 5, 4-(5-Cyano-5,6-dihydropyrrolo[3,4-c]pyrazol-1(4H)-yl)benzamide]

IC50: 10 to 30 µM
SMILES: Cc1nn(-c2ccccc2)c2c1CN(C#N)C2 [Example 10, 3-Methyl-1-phenyl-4,6-dihydropyrrolo[3,4-c]pyrazole-5(1H)-carbonitrile]

IC50: < 10 µM
SMILES: N#CN1Cc2[nH]nc(Nc3cc4ccccc4cn3)c2C1 [Example 31, 3-(Isoquinolin-3-ylamino)-4,6-dihydropyrrolo[3,4-c]pyrazole-5(1H)-carbonitrile]

IC50: < 10 µM
SMILES: N#CN1Cc2[nH]nc(-c3cccc(F)c3)c2C1 [Example 57, 3-(3-Fluorophenyl)-4,6-dihydropyrrolo[3,4-c]pyrazole-5(1H)-carbonitrile]

IC50: < 10 µM
SMILES: Cc1ccc(F)c(-c2nn(C)c3c2CN(C#N)C3)c1 [Example 60, 3-(2-fluoro-5-methylphenyl)-1-methyl-4,6-dihydropyrrolo[3,4-c]pyrazole-5(1H)-carbonitrile]

IC50: < 10 µM
SMILES: Cn1nc(-c2ccccc2)c2c1CN(C#N)C2 [Example 21, 1-Methyl-3-phenyl-4,6-dihydropyrrolo[3,4-c]pyrazole-5(1H)-carbonitrile]

IC50: 10 to 30 µM
SMILES: N#CN1Cc2cnn(-c3ccc(C(=O)NCc4ccccn4)cc3)c2C1 [Example 14, 4-(5-Cyano-5,6-dihydro-pyrrolo[3,4-c]pyrazol-1(4H)-yl)-N-(pyridin-2-ylmethyl)benzamide]

More lines, now with the values behind:

SMILES: N#CN1Cc2[nH]nc(-c3ccc(C(F)(F)F)cc3F)c2C1 [Example 43, 3-(2-Fluoro-4-(trifluoromethyl)phenyl)-4,6-dihydropyrrolo[3,4-c]pyrazole-5(1H)-carbonitrile]
IC50: < 10 µM

SMILES: Cc1ccc(C(=O)NCc2nn(-c3ccccc3)c3c2CN(C#N)C3)cc1 [Example 35, N-((5-Cyano-1-phenyl-1,4,5,6-tetrahydropyrrolo[3,4-c]pyrazol-3-yl)methyl)-4-methylbenzamide]
IC50: < 10 µM

SMILES: N#CN1Cc2[nH]nc(-c3ccc(F)cc3)c2C1 [Example 59, 3-(4-Fluorophenyl)-4,6-dihydropyrrolo[3,4-c]pyrazole-5(1H)-carbonitrile]
IC50: < 10 µM

SMILES: CC(C)Oc1ccc(-c2n[nH]c3c2CN(C#N)C3)cn1 [Example 50, 3-(6-Isopropoxypyridin-3-yl)-4,6-dihydropyrrolo[3,4-c]pyrazole-5(1H)-carbonitrile]
IC50: < 10 µM

SMILES: COc1ccc(C(C)C)cc1-c1n[nH]c2c1CN(C#N)C2 [Example 26, 3-(5-Isopropyl-2-methoxyphenyl)-4,6-dihydropyrrolo[3,4-c]pyrazole-5(1H)-carbonitrile]
IC50: < 10 µM

SMILES: CN1CCN(C(=O)c2ccc(-c3n[nH]c4c3CN(C#N)C4)cc2)CC1 [Example 51, 3-(4-(4-Methylpiperazine-1-carbonyl)phenyl)-4,6-dihydropyrrolo[3,4-c]pyrazole-5(1H)-carbonitrile]
IC50: < 10 µM

SMILES: Cc1ccc2[nH]ncc2c1-c1n[nH]c2c1CN(C#N)C2 [Example 54, 3-(5-Methyl-1H-indazol-4-yl)-4,6-dihydropyrrolo[3,4-c]pyrazole-5(1H)-carbonitrile]
IC50: < 10 µM

SMILES: N#Cc1ccc(-c2n[nH]c3c2CN(C#N)C3)cc1 [Example 42, 3-(4-Cyanophenyl)-4,6-dihydropyrrolo[3,4-c]pyrazole-5(1H)-carbonitrile]
IC50: < 10 µM

SMILES: N#CN1Cc2[nH]nc(-c3cccc(NS(=O)(=O)C4CC4)c3)c2C1 [Example 56, N-(3-(5-Cyano-1,4,5,6-tetrahydropyrrolo[3,4-c]pyrazol-3-yl)phenyl)cyclo-propanesulfonamide]
IC50: < 10 µM

SMILES: CN1CCN(c2ccc(-c3n[nH]c4c3CN(C#N)C4)cc2)CC1 [Example 66, 3-(4-(4-Methylpiperazin-1-yl)phenyl)-4,6-dihydro-pyrrolo[3,4-c]pyrazole-5(1H)-carbonitrile]
IC50: < 10 µM

SMILES: COc1ccc(C(C)C)cc1-c1c2c(nn1C)CN(C#N)C2 [Example 63, 3-(5-Isopropyl-2-methoxyphenyl)-2-methyl-2,6-dihydropyrrolo[3,4-c]pyrazole-5(4H)-carbonitrile]
IC50: 10 to 30 µM

SMILES: CN1CCN(c2ccc(-c3n[nH]c4c3CN(C#N)C4)c(F)c2)CC1 [Example 73, 3-(2-Fluoro-4-(4-methylpiperazin-1-yl)phenyl)-4,6-dihydro-pyrrolo[3,4-c]pyrazole-5(1H)-carbonitrile]
IC50: < 10 µM

SMILES: COc1cc(-n2cccn2)ccc1-c1n[nH]c2c1CN(C#N)C2 [Example 70, 3-(2-Methoxy-4-(1H-pyrazol-1-yl)phenyl)-4,6-dihydropyrrolo[3,4-c]pyrazole-5(4H)-carbonitrile]
IC50: < 10 µM

SMILES: COc1ccc(C(C)C)cc1-c1nn(Cc2ccccc2)c2c1CN(C#N)C2 [Example 25, 1-Benzyl-3-(5-isopropyl-2-methoxyphenyl)-4,6-dihydropyrrolo[3,4-c]pyrazole-5(1H)-carbonitrile]
IC50: 10 to 30 µM

SMILES: CNC(=O)c1ccc(-c2n[nH]c3c2CN(C#N)C3)cn1 [Example 45, 5-(5-Cyano-1,4,5,6-tetrahydropyrrolo[3,4-c]pyrazol-3-yl)-N-methylpicolinamide]
IC50: < 10 µM

SMILES: N#CN1Cc2[nH]nc(-c3cccc(OC(F)(F)F)c3)c2C1 [Example 40, 3-(3-(Trifluoro-methoxy)phenyl)-4,6-dihydropyrrolo[3,4-c]pyrazole-5(1H)-carbonitrile]
IC50: 10 to 30 µM

SMILES: N#Cc1cccc(-c2n[nH]c3c2CN(C#N)C3)c1 [Example 38, 3-(3-Cyanophenyl)-4,6-dihydropyrrolo[3,4-c]pyrazole-5(1H)-carbonitrile]
IC50: < 10 µM

SMILES: N#CN1Cc2[nH]nc(-c3ccc(OCc4ccccc4)cc3)c2C1 [Example 37, 3-(4-(Benzyloxy)phenyl)-4,6-dihydropyrrolo[3,4-c]pyrazole-5(1H)-carbonitrile]
IC50: < 10 µM

SMILES: COc1cc(Cl)ccc1-c1n[nH]c2c1CN(C#N)C2 [Example 67, 3-(4-Chloro-2-methoxyphenyl)-4,6-dihydropyrrolo[3,4-c]pyrazole-5(4H)-carbonitrile]
IC50: < 10 µM
